Measured values taken from the supplement of paper PMC10883282.
Structures can show the parent of a compound that is named as a salt. ± gives the standard deviation of the averaged measurements.

Tested on: SK-ES-1
Experiment: relative viability vs DMSO control (72 h) (fraction); higher = more viable cells
Method in brief: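 Sarcoma cell lines were plated in 384 wells to reach 80–90% confluence, treated after 24 h with 2.5 µl of serially diluted compound and held 72 h at 37 °C, 5% CO2. Relative viability was taken as percent growth from ATPLite readings, averaged over up to triplicate wells. The values were rescaled so that 1 marks full and 0 marks none.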

Row | SMILES | relative viability (0.00017 µM) | relative viability (0.00051 µM) | relative viability (0.00152 µM) | relative viability (0.00457 µM) | relative viability (0.01372 µM) | relative viability (0.04115 µM) | relative viability (0.1235 µM) | relative viability (0.3704 µM) | relative viability (1.111 µM) | relative viability (3.333 µM) | relative viability (10 µM)
1 | CNC(=O)c1cc(Oc2ccc(NC(=O)Nc3ccc(Cl)c(C(F)(F)F)c3)c(F)c2)ccn1 [Regorafenib] | 1.11 ± 0.054 | 1.03 ± 0.027 | 1.08 ± 0.032 | 1.04 ± 0.017 | 1.02 ± 0.085 | 1.03 ± 0.014 | 1.09 ± 0.036 | 1.05 ± 0.047 | 0.952 ± 0.05 | 0.836 ± 0.017 | 0.523 ± 0.021
2 | CNC(=O)c1ccc(-c2cnc3ncc(Cc4ccc5ncccc5c4)n3n2)cc1F [Capmatinib] | 1.06 ± 0.011 | 1.05 ± 0.022 | 1.11 ± 0.023 | 1.08 ± 0.04 | 1.06 ± 0.021 | 1.09 ± 0.015 | 1.09 ± 0.048 | 1.08 ± 0.049 | 1.12 ± 0.03 | 1.08 ± 0.026 | 1.07 ± 0.026
3 | COc1cccc2c1C(=O)c1c(O)c3c(c(O)c1C2=O)C[C@@](O)(C(=O)CO)C[C@@H]3O[C@H]1C[C@H](N)[C@H](O)[C@H](C)O1 [Doxorubicin Hydrochloride] | 0.999 ± 0.033 | 1.05 ± 0.074 | 1 ± 0.057 | 0.991 ± 0.085 | 0.604 ± 0.065 | 0.307 ± 0.025 | 0.123 ± 0.014 | 0.0254 ± 0.0066 | 0.000533 ± 0.00072 | -0.000167 ± 0.00091 | 0.00357 ± 0.00093
4 | CO[C@H]1C[C@@H]2CC[C@@H](C)[C@@](O)(O2)C(=O)C(=O)N2CCCC[C@H]2C(=O)O[C@H]([C@H](C)C[C@@H]2CC[C@@H](OP(C)(C)=O)[C@H](OC)C2)CC(=O)[C@H](C)/C=C(\C)[C@@H](O)[C@@H](OC)C(=O)[C@H](C)C[C@H](C)/C=C/C=C/C=C/1C [Ridaforolimus] | 1.03 ± 0.059 | 1.04 ± 0.033 | 0.978 ± 0.051 | 0.806 ± 0.055 | 0.675 ± 0.037 | 0.643 ± 0.037 | 0.601 ± 0.014 | 0.555 ± 0.026 | 0.56 ± 0.0043 | 0.545 ± 0.029 | 0.52 ± 0.011
5 | Cc1cc(C)c(/C=C2\C(=O)Nc3ccccc32)[nH]1 [Semaxanib] | 0.972 ± 0.06 | 1.01 ± 0.056 | 0.954 ± 0.028 | 1 ± 0.056 | 0.967 ± 0.055 | 0.999 ± 0.018 | 1 ± 0.027 | 0.986 ± 0.09 | 0.925 ± 0.042 | 0.934 ± 0.052 | 0.765 ± 0.068
6 | CN1CCC(COc2cnc(-c3cccc(Cn4nc(-c5cccc(C#N)c5)ccc4=O)c3)nc2)CC1 [Tepotinib] | 0.997 ± 0.018 | 1.08 ± 0.037 | 1.06 ± 0.026 | 1.06 ± 0.023 | 1.02 ± 0.018 | 1.06 ± 0.028 | 1.003 ± 0.0064 | 1 ± 0.037 | 0.974 ± 0.045 | 0.98 ± 0.038 | 0.718 ± 0.031
7 | COc1cc2c(Oc3ccc4[nH]c(C)cc4c3F)ncnc2cc1OCCCN1CCCC1 [Cediranib] | 1.04 ± 0.014 | 1.07 ± 0.058 | 1.1 ± 0.02 | 1.06 ± 0.033 | 1.06 ± 0.066 | 1.07 ± 0.015 | 1.062 ± 0.0014 | 1.07 ± 0.064 | 0.877 ± 0.033 | 0.763 ± 0.019 | 0.133 ± 0.049
8 | C[C@@H](c1ccc2nccn2c1)n1nnc2ncc(-c3cnn(C)c3)nc21 [Volitinib] | 1.02 ± 0.025 | 1.01 ± 0.06 | 1.05 ± 0.031 | 1.07 ± 0.021 | 1.05 ± 0.047 | 1.04 ± 0.033 | 1.04 ± 0.051 | 1.03 ± 0.036 | 1.05 ± 0.1 | 1.05 ± 0.058 | 1.01 ± 0.083
9 | CC1(C)CNc2cc(NC(=O)c3cccnc3NCc3ccncc3)ccc21 [Motesanib] | 0.942 ± 0.053 | 0.899 ± 0.059 | 0.952 ± 0.013 | 0.891 ± 0.017 | 0.9075 ± 0.0058 | 0.938 ± 0.056 | 0.974 ± 0.051 | 0.913 ± 0.043 | 0.954 ± 0.044 | 0.924 ± 0.053 | 0.753 ± 0.038
10 | N#CC[C@H](C1CCCC1)n1cc(-c2ncnc3[nH]ccc23)cn1 [Ruxolitinib] | 0.926 ± 0.028 | 0.974 ± 0.027 | 0.96 ± 0.038 | 0.9617 ± 0.0031 | 0.942 ± 0.039 | 0.95 ± 0.049 | 0.933 ± 0.024 | 0.959 ± 0.044 | 0.932 ± 0.025 | 0.897 ± 0.05 | 0.812 ± 0.04
11 | Cc1nc(NC(=O)N2CCC[C@H]2C(N)=O)sc1-c1ccnc(C(C)(C)C(F)(F)F)c1 [Alpelisib] | 1.02 ± 0.032 | 1 ± 0.047 | 1.01 ± 0.039 | 1.01 ± 0.054 | 0.995 ± 0.057 | 0.931 ± 0.033 | 0.888 ± 0.052 | 0.675 ± 0.057 | 0.558 ± 0.0047 | 0.425 ± 0.024 | 0.289 ± 0.02
12 | CN1CCN(c2ccc3nc(-c4c(N)c5c(F)cccc5[nH]c4=O)[nH]c3c2)CC1 [Dovitinib] | 1.02 ± 0.013 | 1.07 ± 0.037 | 1.044 ± 0.0086 | 1.03 ± 0.022 | 1.07 ± 0.015 | 0.963 ± 0.049 | 0.937 ± 0.039 | 0.676 ± 0.012 | 0.365 ± 0.0063 | 0.155 ± 0.017 | 0.0451 ± 0.0026
